Like-named read-outs stand apart in the source and are kept apart here.
Test system: BT474
Assay: Cell viability (CellTiter-Blue, 72 h), phytocannabinoids alone and in combination, BT474 breast cancer cells
Assay type: cell-based
Conditions: for IC50: Homo sapiens; for effect (but only 50% effect): extent of effect reached
Description: The cell lines tested in this Example were as follows. Breast cancer: MDA-MB-231; SK-BR3; and BT474. Liver cancer: HepG2.
The phytocannabinoids were tested alone and in various ratioed combinations in media containing final concentrations of 10% and 1% foetal bovine serum at 72 h for the breast and prostate cancer lines and 1% foetal bovine serum for the liver cancer line HepG2.
Each tumour cell line was maintained in vitro in RPMI 1640+10% heat inactivated FBS and 2 mM L-glutamine (growth media) at 37° C. in 5% CO2 and humidified conditions. The cells were harvested, washed, re-suspended into growth medium and counted. The cells were re-suspended into assay media (RPMI 1640+5% heat inactivated FBS+ and 2 mM L-glutamine) at 8×104-2×10^5 cells/ml (dependent upon cell type) and plated into the middle 240 wells of 384 well tissue culture plates (Corning CellBind, black-wall plates) 12.5 μl/well aliquots; 62.5 μl of growth media was aliquoted into the outer wells. There were 4 plates for each cell line. The plates were incubated overnight at 37° C., in 5% humidified CO2.
The phytocannabinoid test compounds were prepared in 100% DMSO vehicle at a stock concentration of 10 mM.
Starting with the 10 mM stock, the compounds were diluted to 125 μM in FBS-free growth media.
These were diluted in FBS-free growth media to 125 μM before serial dilution.
5 volumes of CBD 10 mM stock was added to 1 volume of the other agent (also at 10 mM) and 4 volumes of DMSO. This made a final concentration of 5 mM:1 mM. This was then diluted in FBS-free growth media so the top concentration of CBD would be 125 μM (before serial dilution). Each compound and compound combination stock was serially diluted in FBS-free growth media (containing 1.25% v/v DMSO) from 125 μM to 41.7, 13.89, 4.63, 1.54, 0.514, 0.171, 0.057 and 0.019 μM (1.25× final assay concentrations). Vehicle was prepared at equivalent dilutions in assay media. The top final concentration of compound in the assay was always 100 μM so CBD5:1CBG was 100 μM CBD and 20 μM CBG.
Taxotere SOC was prepared at a stock concentration of 1 mM in 100% DMSO. Taxotere was serially diluted from the stock solution into FBS-free growth media to 12.5 μM, then serially diluted in FBS-free growth media containing 1.25% DMSO to 4.17, 1.39, 0.46, 0.154, 0.051, 0.017, 0.006, 0.002 μM (1.25× final assay concentrations).
This was then serially diluted in FBS-free growth media to 0.417, 0.139, 0.046, 0.0154, 0.0051, 0.0017, 0.0006, 0.0002 μM (1.25× final assay concentrations). This was plated as a positive control for the SKBR3 & BT474 cell lines. 50 μl per well of compound/vehicle dilutions was added to the plates in replicates of 6. Where applicable total volume in the well was made up to 62.5 μl with assay media.
The plates were incubated for 72 h at 37° C. in 5% humidified CO2. To develop the plates, at 72 h, 10 μl of CellTiter-Blue™ reagent was added to each test/blank well. The plates were incubated at 37° C., 5% humidified CO2. Fluorescence was measured using a Flex II Station plate reader (570 nm excitation wavelength, 600 nm emission wavelength, 590 nm cut-off) after 3 h.
The experimental conditions were the same as the experiment above, with the same compound dilutions and volumes for plating but using growth media containing 10% FBS rather than FBS-free media.
The raw data values expressed in relative fluorescent units were normalised to the vehicle for each individual plate and any reduction in fluorescence indicated a decrease in viability.
The data were analysed in GraphPad PRISM using a non-linear sigmoidal plot with variable slope (asymmetric five point linear regression) and where possible an IC50 value for each single compound and combination was generated.
For the calculation, raw data values expressed in relative fluorescent units were normalised to the vehicle for each individual plate (set as 0%) and the reduction in fluorescence calculated as an increase in inhibition of viability.

[1] = BT-474, 72 h, BT474, 1% FBS, 72 h, read-out: IC50 values
[2] = BT-474, 72 h, BT474, 10% FBS, 72 h, read-out: IC50 values
[3] = BT-474, BT474, 1% FBS, Calcusyn median-effect analysis, read-out: Dm (median effect dose)

Row | SMILES | IC50 [1] | IC50 [2] | IC50 [3] | effect (but only 50% effect) (BT474, 1% FBS) | effect (but only 50% effect) (BT474, 10% FBS)
1 | C=C(C)[C@@H]1CCC(C)=C[C@H]1c1c(O)cc(CCCCC)cc1O [CBD, Cannabidiol] | 8 µM | 28 µM | 16.9 µM |  | 
2 | C=C(C)[C@@H]1CCC(C)=C[C@H]1c1c(O)cc(CCCCC)c(C(=O)O)c1O [CBDA, Cannabidiolic acid] | 21.8 µM | > 100 µM | 43.3 µM |  | 
3 | CCCCCc1cc(O)c(C/C=C(\C)CCC=C(C)C)c(O)c1 [CBG, Cannabigerol] | 7.9 µM | 37 µM | 14.8 µM |  | 
4 | CCCCCc1cc(O)c(C/C=C(\C)CCC=C(C)C)c(O)c1C(=O)O [CBGA, Cannabigerolic acid] | 24.8 µM | ~100 µM | 27.9 µM |  | 
5 | CCCc1cc(O)c2c(c1)OC(C)(C)[C@@H]1CCC(C)=C[C@@H]21 [THCV, Tetrahydrocannabivarin] | 13.3 µM | 31 µM | 20.3 µM |  | 
6 | CC(=O)O[C@@]12CO[C@@H]1C[C@H](O)[C@@]1(C)C(=O)[C@H](O)C3=C(C)[C@@H](OC(=O)[C@H](O)[C@@H](NC(=O)OC(C)(C)C)c4ccccc4)C[C@@](O)([C@@H](OC(=O)c4ccccc4)[C@H]21)C3(C)C [Taxotere, Docetaxel, reference compound] | < 0.001 µM | < 0.001 µM |  | only 50% | 50% effect)
